Data from patent US8362000B2, “Azetidinyl diamides as monoacylglycerol lipase inhibitors” (Janssen Pharmaceutica NV, priority 2009, dated 2013).

Molecular target: T1, MGL (Rattus norvegicus, UniProt Q8R431)
T1 construct: one g rat brain was homogenized using a Polytron homogenizer; from tissue; host or cells: rat brain homogenate
T1 sequence (Q8R431 1-303): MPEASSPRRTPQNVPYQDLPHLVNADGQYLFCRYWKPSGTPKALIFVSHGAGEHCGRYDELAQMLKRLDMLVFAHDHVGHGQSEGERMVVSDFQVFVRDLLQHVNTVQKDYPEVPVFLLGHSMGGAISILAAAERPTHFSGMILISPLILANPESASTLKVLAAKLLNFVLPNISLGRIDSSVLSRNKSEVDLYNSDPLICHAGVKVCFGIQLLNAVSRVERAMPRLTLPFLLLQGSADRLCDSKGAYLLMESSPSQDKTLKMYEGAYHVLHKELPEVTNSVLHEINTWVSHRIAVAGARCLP
Test: 2-AG accumulation assay in rat brain homogenate
Format: biochemical
Conditions: rat brain homogenate, 2-AG accumulation as percent of vehicle; for 2-AG accumulation, % of vehicle control at 10 µM: compound 10 μM, read-out: Rat Brain 2AG % VehCntrl (%) @ 10 μM; for 2-AG accumulation, % of vehicle control at 1 µM: read-out: Rat Brain 2AG % VehCntrl (%) @ 1 μM

SMILES | 2-AG accumulation, % of vehicle control at 10 µM [%] | 2-AG accumulation, % of vehicle control at 1 µM (compound 1 μM) [%] | other results
CN(C)S(=O)(=O)c1ccc(-c2ccc(C(=O)N3CC(N4CCN(C(=O)c5nccs5)CC4)C3)cc2)cc1 [Cpd 213, N,N-Dimethyl-4′-({3-[4-(1,3-thiazol-2-ylcarbonyl)piperazin-1-yl]azetidin-1-yl}carbonyl)biphenyl-4-sulfonamide] | 104 |  | 
CC(C)(C)OC(=O)Nc1cccc(-c2ccc(C(=O)N3CC(N4CCN(C(=O)c5nccs5)CC4)C3)cc2)c1 [Cpd 220, tert-Butyl [4′-({3-[4-(1,3-thiazol-2-ylcarbonyl)piperazin-1-yl]azetidin-1-yl}carbonyl)biphenyl-3-yl]carbamate] | 993 |  | 
COC(=O)C=Cc1ccc(-c2ccc(C(=O)N3CC(N4CCN(C(=O)c5nccs5)CC4)C3)cc2)cc1 [Cpd 224, Methyl 3-[4′-({3-[4-(1,3-thiazol-2-ylcarbonyl)piperazin-1-yl]azetidin-1-yl}carbonyl)biphenyl-4-yl]prop-2-enoate] | 906 |  | 
CC(C)(C)OC(=O)N1CCc2cc(C(=O)N3CC(N4CCN(C(=O)c5ccccc5)CC4)C3)ccc2C1 [Cpd 319, tert-Butyl 6-({3-[4-(phenylcarbonyl)piperazin-1-yl]azetidin-1-yl}carbonyl)-3,4-dihydroisoquinoline-2(1H)-carboxylate] | 396 |  | 
O=C(c1ccccc1)N1CCN(C2CN(C(=O)c3ccc(Cc4ccccc4)s3)C2)CC1 [Cpd 321, 1-{1-[(5-Benzylthiophen-2-yl)carbonyl]azetidin-3-yl}-4-(phenylcarbonyl)piperazine] | 230 |  | 
O=C(c1cscn1)N1CCN(C2CN(C(=O)c3cc4c(C(F)(F)F)cccc4s3)C2)CC1 [Cpd 334, 1-(1,3-Thiazol-4-ylcarbonyl)-4-(1-{[4-(trifluoromethyl)-1-benzothiophen-2-yl]carbonyl}azetidin-3-yl)piperazine] |  | 259 | 
O=C(c1ccccc1)N1CCN(C2CN(C(=O)c3sc4cc(C(F)(F)F)ccc4c3Cl)C2)CC1 [Cpd 336] |  | 223 | 
O=C(c1ccccc1)N1CCN(C2CN(C(=O)c3cc4ccc(-c5ccccc5)cc4s3)C2)CC1 [Cpd 342, 1-{1-[(6-Phenyl-1-benzothiophen-2-yl)carbonyl]azetidin-3-yl}-4-(phenylcarbonyl)piperazine] | 288 |  | 
O=C(c1ccccc1)N1CCN(C2CN(C(=O)c3ccc4c(c3)CCN(C(=O)C3CCCCC3)C4)C2)CC1 [Cpd 350, 2-(Cyclohexylcarbonyl)-6-({3-[4-(phenylcarbonyl)piperazin-1-yl]azetidin-1-yl}carbonyl)-1,2,3,4-tetrahydroisoquinoline] | 498 |  | 
O=C(c1ccc2c(c1)CCCN2C(=O)c1ccc(C(F)(F)F)cc1)N1CC(N2CCN(C(=O)c3nccs3)CC2)C1 [Cpd 365, 6-({3-[4-(1,3-Thiazol-2-ylcarbonyl)piperazin-1-yl]azetidin-1-yl}carbonyl)-1-(4-trifluoromethylbenzoyl)-1,2,3,4-tetrahydroquinoline] |  | 971 | 
O=C(c1ccccc1)N1CCN(C2CN(C(=O)c3ccc(OCc4ccc5ccccc5c4)cc3)C2)CC1 [Cpd 380, 1-(1-{[4-(Naphthalen-2-ylmethoxy)phenyl]carbonyl}azetidin-3-yl)-4-(phenylcarbonyl)piperazine] | 773 |  | 
O=C(c1ccc(Sc2cccc(C(F)(F)F)c2)cc1)N1CC(N2CCN(C(=O)c3nccs3)CC2)C1 [Cpd 431] |  | 703 | 
O=C(c1ccccc1)N1CCN(C2CN(C(=O)c3ccc(S(=O)(=O)c4cccc(Cl)c4)cc3)C2)CC1 [Cpd 433, 1-[1-({4-[(3-Chlorophenyl)sulfonyl]phenyl}carbonyl)azetidin-3-yl]-4-(phenylcarbonyl)piperazine] |  | 159 | 
CC(C)(C)OC(=O)N1CC[C@H](Oc2ccc(C(=O)N3CC(N4CCN(C(=O)c5ccccc5)CC4)C3)cc2)C1 [Cpd 434, tert-Butyl (3S)-3-[4-({3-[4-(phenylcarbonyl)piperazin-1-yl]azetidin-1-yl}carbonyl)phenoxy]pyrrolidine-1-carboxylate] | 737 |  | 
O=C(c1ccccc1)N1CCN(C2CN(C(=O)c3ccc(OC4CCCCC4)cc3)C2)CC1 [Cpd 435, 1-(1-{[4-(Cyclohexyloxy)phenyl]carbonyl}azetidin-3-yl)-4-(phenylcarbonyl)piperazine] | 198 |  | 
O=C(c1ccccc1)N1CCN(C2CN(C(=O)c3ccc4c(ccn4-c4ccc(F)cc4F)c3)C2)CC1 [Cpd 579, 1-(2,4-Difluorophenyl)-5-({3-[4-(phenylcarbonyl)piperazin-1-yl]azetidin-1-yl}carbonyl)-1H-indole] |  | 265 | 
O=C(c1ccccc1)N1CCN(C2CN(C(=O)c3ccc(-c4ccc(C(F)(F)F)s4)cc3)C2)CC1 [Cpd 581, 1-(Phenylcarbonyl)-4-[1-({4-[5-(trifluoromethyl)thiophen-2-yl]phenyl}carbonyl)azetidin-3-yl]piperazine] |  | 140 | 
O=C(c1ccccc1)N1CCN(C2CN(C(=O)c3ccc4c(ccn4-c4ncccn4)c3)C2)CC1 [Cpd 595, 5-({3-[4-(Phenylcarbonyl)piperazin-1-yl]azetidin-1-yl}carbonyl)-1-pyrimidin-2-yl-1H-indole] |  | 128 | 
Cc1c(C(=O)N2CC(N3CCN(C(=O)c4ccns4)CC3)C2)sc2cc(C(F)(F)F)ccc12 [Cpd 692] |  |  | Rat Brain 2AG % VehCntrl (%) @ 1 μM (compound 1 μM): 284%
O=C(c1ccc2c(c1)CCN(S(=O)(=O)C1CCCCC1)C2)N1CC(N2CCN(C(=O)c3nccs3)CC2)C1 [Cpd 906] |  | 896 | 
O=C(c1ccc(C(F)(F)F)cc1)N1CCc2cc(C(=O)N3CC(N4CCN(C(=O)c5nccs5)CC4)C3)ccc2C1 [Cpd 907, 6-({3-[4-(1,3-Thiazol-2-ylcarbonyl)piperazin-1-yl]azetidin-1-yl}carbonyl)-2-{[4-(trifluoromethyl)phenyl]carbonyl}-1,2,3,4-tetrahydroisoquinoline] |  | 867 | 
O=C(c1ccc(SCc2cccc(C(F)(F)F)c2)cc1)N1CC(N2CCN(C(=O)c3nccs3)CC2)C1 [Cpd 973] |  | 806 | 

Continued, in another order:

2-AG accumulation, % of vehicle control at 10 µM [%] | 2-AG accumulation, % of vehicle control at 1 µM (compound 1 μM) [%] | SMILES | other results
725 |  | O=C(c1ccc(-c2ccc(O)cc2)cc1)N1CC(N2CCN(C(=O)c3nccs3)CC2)C1 [Cpd 211, 4′-({3-[4-(1,3-Thiazol-2-ylcarbonyl)piperazin-1-yl]azetidin-1-yl}carbonyl)biphenyl-4-ol] | 
769 |  | COc1cc(F)c(F)cc1-c1ccc(C(=O)N2CC(N3CCN(C(=O)c4nccs4)CC3)C2)cc1 [Cpd 214, 1-{1-[(4′,5′-Difluoro-2′-methoxybiphenyl-4-yl)carbonyl]azetidin-3-yl}-4-(1,3-thiazol-2-ylcarbonyl)piperazine] | 
625 |  | COc1ccc(-c2ccc(C(=O)N3CC(N4CCN(C(=O)c5nccs5)CC4)C3)cc2)cc1C=O [Cpd 216, 4-Methoxy-4′-({3-[4-(1,3-thiazol-2-ylcarbonyl)piperazin-1-yl]azetidin-1-yl}carbonyl)biphenyl-3-carbaldehyde] | 
764 |  | O=C(c1ccc(-c2cccc(O)c2)cc1)N1CC(N2CCN(C(=O)c3nccs3)CC2)C1 [Cpd 218, 4′-({3-[4-(1,3-Thiazol-2-ylcarbonyl)piperazin-1-yl]azetidin-1-yl}carbonyl)biphenyl-3-ol] | 
945 |  | CC(C)COc1cccc(-c2ccc(C(=O)N3CC(N4CCN(C(=O)c5nccs5)CC4)C3)cc2)c1 [Cpd 221, 1-(1-{[3′-(2-Methylpropoxy)biphenyl-4-yl]carbonyl}azetidin-3-yl)-4-(1,3-thiazol-2-ylcarbonyl)piperazine] | 
567 |  | Nc1cccc(-c2ccc(C(=O)N3CC(N4CCN(C(=O)c5nccs5)CC4)C3)cc2)c1 [Cpd 230, 4′-({3-[4-(1,3-Thiazol-2-ylcarbonyl)piperazin-1-yl]azetidin-1-yl}carbonyl)biphenyl-3-amine] | 
623 |  | O=C(CCc1ccccc1Cl)N1CC(N2CCN(C(=O)c3nccs3)CC2)C1 [Cpd 273, 1-{1-[3-(2-Chlorophenyl)propanoyl]azetidin-3-yl}-4-(1,3-thiazol-2-ylcarbonyl)piperazine] | 
876 |  | O=C(CCc1c(Cl)cccc1Cl)N1CC(N2CCN(C(=O)c3nccs3)CC2)C1 [Cpd 274, 1-{1-[3-(2,6-Dichlorophenyl)propanoyl]azetidin-3-yl}-4-(1,3-thiazol-2-ylcarbonyl)piperazine] | 
201 |  | O=C(CCc1ccc(Cl)c(Cl)c1)N1CC(N2CCN(C(=O)c3nccs3)CC2)C1 [Cpd 281, 1-{1-[3-(3,4-Dichlorophenyl)propanoyl]azetidin-3-yl}-4-(1,3-thiazol-2-ylcarbonyl)piperazine] | 
605 |  | O=C(/C=C/c1ccc(SC(F)(F)F)cc1)N1CC(N2CCN(C(=O)c3nccs3)CC2)C1 [Cpd 283] | 
814 |  | O=C(c1ccc2c(Br)cccc2c1)N1CC(N2CCN(C(=O)c3nccs3)CC2)C1 [Cpd 313, 1-{1-[(5-Bromonaphthalen-2-yl)carbonyl]azetidin-3-yl}-4-(1,3-thiazol-2-ylcarbonyl)piperazine] | 
 | 850 | O=C(c1ccc2c(c1)CCN(S(=O)(=O)c1ccccc1)C2)N1CC(N2CCN(C(=O)c3nccs3)CC2)C1 [Cpd 927] | 
